For 31 compounds, IC50 results are on record in patent publication US20080233127A1, “IMIDAZOLOPYRIMIDINE ANALOGS AND THEIR USE AS PI3 KINASE AND MTOR INHIBITORS” (Wyeth, priority 2007, published 2008).

In one assay the target is T1, human TOR (Homo sapiens, UniProt P42345).
T1 construct: FLAG
As to the kind of experiment: mTOR enzyme assay (DELFIA format, purified FLAG-TOR, His6-S6K substrate). In kind it is biochemical. The following applies: 100 μM ATP, 1.25 μM His6-S6K, 2 hours at room temperature; read-out: TOR Kinase Median IC50.

Another assay has as its target PI3 Kinase. As to the kind of experiment: PI3K fluorescence polarization assay. The format is biochemical. The conditions noted are these: 25 μM ATP, diC8-PI(4,5)P2 substrate, 1 hour at 25° C.; read-out: PI3 Kinase Median IC50.

Experimental for PI3 Kinase: Nunc 384 well black polypropylene fluorescent plates are used for PI3K assays. Reactions are quenched by the addition of EDTA to a final concentration of 10 mM. Final reaction volumes are 10 μl. […] Reactions are allowed to proceed for one hour at 25° C. After 1 hour, GST-tagged GRP1 (general receptor for phosphoinositides) PH domain fusion protein is added to a final concentration of 100 nM, and BODIPY-TMRI(1,3,4,5)P4 (Echelon) is also added to a final concentration of 5 nM. Final sample volumes are 25 μl with a final DMSO concentration of 0.8%. Assay Plates are read on Perkin-Elmer Envision plate readers with appropriate filters for Tamra [BODIPY-TMRI(1,3,4,5)P4].

Consider `Oc1cncc(-c2nc(N3CCOCC3)c3ncn(C4CCN(Cc5ccc(F)nc5)CC4)c3n2)c1` [Compound 41, 5-{9-[1-(6-fluoro-pyridin-3-ylmethyl)-piperidin-4-yl]-6-morpholin-4-yl-9H-purin-2-yl}-pyridin-3-ol], for which the IC50 on human TOR was found to be 570 nM; on PI3 Kinase, 94 nM.

With `COc1cncc(-c2nc(N3CCOCC3)c3nc[nH]c3n2)c1` [Compound 42, 2-(5-methoxypyridin-3-yl)-6-morpholin-4-yl-9H-purine], the IC50 on human TOR amounted to 3000 nM; on PI3 Kinase it was 598 nM.

Regarding `Oc1cncc(-c2nc(N3CCOCC3)c3nc[nH]c3n2)c1` [Compound 43, 5-(6-morpholin-4-yl-9H-purin-2-yl)pyridin-3-ol], the IC50 at human TOR turned out to be 620 nM; on PI3 Kinase it was 11 nM.

For the compound `OCc1cccc(-c2nc(N3CCOCC3)c3ncn(C4CCN(Cc5ccccc5F)CC4)c3n2)c1` [Compound 45, (3-{9-[1-(2-fluorobenzyl)piperidin-4-yl]-6-morpholin-4-yl-9H-purin-2-yl}phenyl)methanol], the IC50 on human TOR is 160 nM; at PI3 Kinase it was 42 nM.

For the compound `OCc1cccc(-c2nc(N3CCOCC3)c3ncn(C4CCN(Cc5ccc(F)cc5)CC4)c3n2)c1` [Compound 46, (3-{9-[1-(4-fluorobenzyl)piperidin-4-yl]-6-morpholin-4-yl-9H-purin-2-yl}phenyl)methanol], the figures for the IC50 at human TOR and on PI3 Kinase were 1700 nM and 70 nM, respectively.

As for `CCCCN1CCC(n2cnc3c(N4CCOCC4)nc(-c4cccc(CO)c4)nc32)CC1` [Compound 48], the 50% inhibitory concentration (IC50) was 4200 nM on human TOR and 96 nM at PI3 Kinase.

Turning to `OCc1cccc(-c2nc(N3CCOCC3)c3ncn(C4CCN(Cc5ccc(F)cc5F)CC4)c3n2)c1` [Compound 49, (3-{9-[1-(2,4-difluorobenzyl)piperidin-4-yl]-6-morpholin-4-yl-9H-purin-2-yl}phenyl)methanol], the IC50 at human TOR amounted to 2050 nM; at PI3 Kinase, 44 nM.

Consider `OCc1cccc(-c2nc(N3CCOCC3)c3ncn(C4CCN(Cc5cccc(F)c5)CC4)c3n2)c1` [Compound 50, (3-{9-[1-(3-fluorobenzyl)piperidin-4-yl]-6-morpholin-4-yl-9H-purin-2-yl}phenyl)methanol], for which the results for the 50% inhibitory concentration (IC50) at human TOR and on PI3 Kinase were 1400 nM and 94 nM, respectively.

For `OCc1cccc(-c2nc(N3CCOCC3)c3ncn(C4CCN(Cc5ccco5)CC4)c3n2)c1` [Compound 52, (3-{9-[1-(2-furylmethyl)piperidin-4-yl]-6-morpholin-4-yl-9H-purin-2-yl}phenyl)methanol], the IC50 was determined as 490 nM at human TOR and 46 nM at PI3 Kinase.

For the compound `CC(C)(C)OC(=O)N1CCC(n2cnc3c(N4CCOCC4)nc(-c4cccc(O)c4)nc32)CC1` [Compound 57, tert-butyl 4-{2-(3-hydroxyphenyl)-6-morpholino-9H-purin-9-yl}piperidine-1-carboxylate], the IC50 at human TOR was 270 nM; on PI3 Kinase, 288 nM.

With `COCOc1cncc(-c2nc(N3CCOCC3)c3ncn(C4CCN(C(=O)OC(C)(C)C)CC4)c3n2)c1` [Compound 58, tert-butyl-4-{2-[5-(methoxymethoxy)pyridin-3-yl]-6-morpholin-4-yl-9H-purin-9-yl}piperidine-1-carboxylate], the values for the IC50 on human TOR and on PI3 Kinase were over 4000 nM and 2090 nM, respectively.

`CC(C)(C)OC(=O)N1CCC(n2cnc3c(N4CCOCC4)nc(-c4cccc(CO)c4)nc32)CC1` [Compound 59, tert-butyl 4-{2-[3-(hydroxymethyl)phenyl]-6-morpholin-4-yl-9H-purin-9-yl}piperidine-1-carboxylate]: the IC50 at human TOR is 1400 nM; on PI3 Kinase, 95 nM.

Take `OCc1cccc(-c2nc(N3CCOCC3)c3ncn(C4CCN(Cc5c(F)cc(F)cc5F)CC4)c3n2)c1` [Compound 60, (3-{6-morpholin-4-yl-9-[1-(2,4,6-trifluorobenzyl)piperidin-4-yl]-9H-purin-2-yl}phenyl)methanol]: the figures for the IC50 on human TOR and on PI3 Kinase were 3300 nM and 194 nM, respectively.

On to `OCc1cccc(-c2nc(N3CCOCC3)c3ncn(C4CCN(Cc5ccc(F)nc5)CC4)c3n2)c1` [Compound 61, [3-(9-{1-[(6-fluoropyridin-3-yl)methyl]piperidin-4-yl}-6-morpholin-4-yl-9H-purin-2-yl)phenyl]methanol], for which the IC50 on human TOR was 710 nM; at PI3 Kinase it was 47 nM.

Turning to `OCc1cccc(-c2nc(N3CCOCC3)c3ncn(C4CCN(Cc5ccc(F)c(F)c5)CC4)c3n2)c1` [Compound 62, (3-{9-[1-(3,4-difluorobenzyl)piperidin-4-yl]-6-morpholin-4-yl-9H-purin-2-yl}phenyl)methanol], the half-maximal inhibitory concentration (IC50) at human TOR is 1200 nM; at PI3 Kinase, 42 nM.

Consider `OCc1cccc(-c2nc(N3CCOCC3)c3ncn(C4CCN(Cc5ccc(Cl)nc5)CC4)c3n2)c1` [Compound 63, [3-(9-{1-[(6-chloropyridin-3-yl)methyl]piperidin-4-yl}-6-morpholin-4-yl-9H-purin-2-yl)phenyl]methanol], for which the IC50 was determined as 650 nM at human TOR and 45 nM at PI3 Kinase.

On to `COc1ccc(CN2CCC(n3cnc4c(N5CCOCC5)nc(-c5cccc(CO)c5)nc43)CC2)cn1` [Compound 64, [3-(9-{1-[(6-methoxypyridin-3-yl)methyl]piperidin-4-yl}-6-morpholin-4-yl-9H-purin-2-yl)phenyl]methanol], for which the values for the IC50 on human TOR and at PI3 Kinase were over 4000 nM and 168 nM, respectively.

As to `OCc1cccc(-c2nc(N3CCOCC3)c3ncn(C4CCN(Cc5cncc(F)c5)CC4)c3n2)c1` [Compound 66, [3-(9-{1-[(5-fluoropyridin-3-yl)methyl]piperidin-4-yl}-6-morpholin-4-yl-9H-purin-2-yl)phenyl]methanol], the half-inhibitory concentration (IC50) was over 4000 nM on human TOR and 177 nM at PI3 Kinase.

As for `Cc1ccc(CN2CCC(n3cnc4c(N5CCOCC5)nc(-c5cccc(CO)c5)nc43)CC2)s1` [Compound 67, [3-(9-{1-[(5-methyl-2-thienyl)methyl]piperidin-4-yl}-6-morpholin-4-yl-9H-purin-2-yl)phenyl]methanol], the IC50 on human TOR was over 4000 nM; at PI3 Kinase it was 518 nM.

Consider `OCc1cccc(-c2nc(N3CCOCC3)c3ncn(C4CCN(Cc5ccc[nH]5)CC4)c3n2)c1` [Compound 68, (3-{6-morpholin-4-yl-9-[1-(1H-pyrrol-2-ylmethyl)piperidin-4-yl]-9H-purin-2-yl}phenyl)methanol], for which the 50% inhibitory concentration (IC50) at human TOR was found to be 2500 nM; at PI3 Kinase, 37 nM.

On to `OCc1cccc(-c2nc(N3CCOCC3)c3ncn(C4CCN(Cc5ccc(F)cc5Cl)CC4)c3n2)c1` [Compound 69, (3-{9-[1-(2-chloro-4-fluorobenzyl)piperidin-4-yl]-6-morpholin-4-yl-9H-purin-2-yl}phenyl)methanol], for which the half-maximal inhibitory concentration (IC50) on human TOR worked out at 1550 nM; at PI3 Kinase it was 77 nM.

With `OCc1cccc(-c2nc(N3CCOCC3)c3ncn(C4CCN(Cc5ncc[nH]5)CC4)c3n2)c1` [Compound 70, (3-{9-[1-(1H-imidazol-2-ylmethyl)piperidin-4-yl]-6-morpholin-4-yl-9H-purin-2-yl}phenyl)methanol], the IC50 on human TOR is 1500 nM; on PI3 Kinase it was 152 nM.

As for `OCc1cccc(-c2nc(N3CCOCC3)c3ncn(C4CCN(Cc5cccc(Br)n5)CC4)c3n2)c1` [Compound 71, [3-(9-{1-[(6-bromopyridin-2-yl)methyl]piperidin-4-yl}-6-morpholin-4-yl-9H-purin-2-yl)phenyl]methanol], the half-inhibitory concentration (IC50) at human TOR worked out at 580 nM; at PI3 Kinase, 50 nM.

As to `OCc1cccc(-c2nc(N3CCOCC3)c3ncn(C4CCN(Cc5cccc(N6CCOCC6)n5)CC4)c3n2)c1` [Compound 72, [3-(6-morpholin-4-yl-9-{1-[(6-morpholin-4-ylpyridin-2-yl)methyl]piperidin-4-yl}-9H-purin-2-yl)phenyl]methanol], the IC50 on human TOR is 1800 nM; on PI3 Kinase, 99 nM.

Regarding `OCc1cccc(-c2nc(N3CCOCC3)c3ncn(C4CCN(Cc5c[nH]c6ccc(F)cc56)CC4)c3n2)c1` [Compound 73, [3-(9-{1-[(5-fluoro-1H-indol-3-yl)methyl]piperidin-4-yl}-6-morpholin-4-yl-9H-purin-2-yl)phenyl]methanol], the IC50 was 1300 nM at human TOR and 30 nM at PI3 Kinase.

For the compound `OCc1cccc(-c2nc(N3CCOCC3)c3ncn(C4CCN(Cc5cnc6n5CCOC6)CC4)c3n2)c1` [Compound 74, (3-{9-[1-(5,6-dihydro-8H-imidazo[2,1-c][1,4]oxazin-3-ylmethyl)piperidin-4-yl]-6-morpholin-4-yl-9H-purin-2-yl}phenyl)methanol], the IC50 at human TOR is 2000 nM; at PI3 Kinase, 94 nM.

For the compound `CN(C)CCCOc1ccc(CN2CCC(n3cnc4c(N5CCOCC5)nc(-c5cccc(CO)c5)nc43)CC2)cc1` [Compound 75], the 50% inhibitory concentration (IC50) at human TOR is over 4000 nM; at PI3 Kinase, 16 nM.

On to `Oc1cccc(-c2nc(N3CCOCC3)c3ncn(C4CCN(Cc5ccccn5)CC4)c3n2)c1` [Compound 77, 3-{6-morpholin-4-yl-9-[1-(pyridin-2-ylmethyl)piperidin-4-yl]-9H-purin-2-yl}phenol], for which the values for the half-maximal inhibitory concentration (IC50) at human TOR and on PI3 Kinase were 290 nM and 156 nM, respectively.

Take `Oc1cccc(-c2nc(N3CCOCC3)c3ncn(C4CCN(Cc5ccc(Cl)nc5)CC4)c3n2)c1` [Compound 78, 3-(9-{1-[(6-chloropyridin-3-yl)methyl]piperidin-4-yl}-6-morpholin-4-yl-9H-purin-2-yl)phenol]: the IC50 at human TOR was determined as 200 nM; on PI3 Kinase, 37 nM.

For `COc1ccc(CN2CCC(n3cnc4c(N5CCOCC5)nc(-c5cccc(O)c5)nc43)CC2)cn1` [Compound 79, 3-(9-{1-[(6-methoxypyridin-3-yl)methyl]piperidin-4-yl}-6-morpholin-4-yl-9H-purin-2-yl)phenol], the results for the IC50 on human TOR and on PI3 Kinase were 51 nM and 55 nM, respectively.

Regarding `Oc1cccc(-c2nc(N3CCOCC3)c3ncn(C4CCN(Cc5ccc(N6CCOCC6)nc5)CC4)c3n2)c1` [Compound 82, 3-(6-morpholin-4-yl-9-{1-[(6-morpholin-4-ylpyridin-3-yl)methyl]piperidin-4-yl}-9H-purin-2-yl)phenol], the results for the IC50 at human TOR and on PI3 Kinase were 145 nM and 55 nM, respectively.
